What was measured:
CD34+cells = assay: erythroid colony formation in methylcellulose, CD34+ cells; type: cell-based; details: colonies counted on day 14
From the text: CD34+cells were isolated and seeded in the presence of compound. The colonies were counted on day 14.

[1] = tested on: EPO-Receptor down stream signaling pathway in TF-1 or UT-7 cells; assay: In vitro signaling (EPO-R activation); type: cell-based
Description: UT-7 cells were grown in Minimal Essential Medium Alpha (MEM-α) containing 20% FBS, 1.5 g/L NaHCO3, 5 ng/ml GM-CSF, and 100U Penicillin/100 ug/ml Streptomycin Sulfate (“P/S”), in T150 flasks (60 ml/flask) at 37° C., 5% CO2 to a density of no more than 5×10^5 cells/ml. The cells were starved overnight in MEM-α containing 10% FBS, 1.5 g/L NaHCO3 and P/S in T150 flasks (60ml/flask) at a density of 5×10^5 cells/ml, in 5% CO2, 37° C. The cells were then centrifuged in a swinging-bucket rotor at 200×g for 5 minutes at room temperature. The supernatant was removed, and the cells pooled into one 50 ml conical tube. The cells were washed twice with serum-free medium (MEM-alpha containing 1.5 g/L NaHCO3 and P/S). After the last wash, the cells were resuspended to a density of 1×10^7 cells/ml in serum-free medium. The cells were then placed in 15 ml conical tubes in 1 ml aliquots and incubated with the caps loosened for 1 hour at 37° C., 5% CO2. Every 10 minutes, the lower portion of each tube was tapped (flicked) several times to prevent the cells from settling (please note, this step is very important!)
It was also observed that EPO-R was phosphorylated when stimulated with non-peptide EPO-R modulators. (See FIG. 4) […]

With `Cc1ccc(Cl)cc1Nc1nc2nc(C)c(NCC3CC3)cn2n1` [Compound E5] the “cooperation with EPO on erythroid colony formation” value (CD34+cells) was “cooperation” and the “activation of EPO-R” value [1] was “activation of EPO-R”.
